Counter-ions that a name gives are not always drawn.
What was measured:
[1] = target: M.TaqI DNA methyltransferase (Thermus aquaticus, UniProt P14385); assay: Restriction protection assay after M.TaqI-directed DNA modification (agarose gel); format: biochemical; details: pUC19 DNA, Cutsmart buffer, 60° C., 1 hour; restriction enzyme TaqaI 1 hour; Ethidium bromide
Procedure: Adenine-N6 DNA modification by M.TaqI DNA methyltransferase: […] DNA methyltransferase targets the four-base recognition sequence 5′-TCGA-3′ and modifies the underlined adenine residue at the N6-position and was combined with (6-Azido-hex-2-yne)(5′-Deoxyadenosyl)-(L-Cysteine)sulfonium salt (see example 9 for preparation). The methyltransferase enzyme and cofactors were incubated with pUC19 DNA in “Cutsmart buffer” at 60° C. for 1 hour. To determine if protection occurred the DNA was incubated with the corresponding restriction enzyme (TaqaI) for 1 hour. Afterwards, the remaining proteins were digested with Proteinase K. The DNA samples are then placed on an agarose gel and visualized with Ethidium bromide (FIG. 1).
Adenine-N6 DNA modification by M.TaqI DNA methyltransferase: […] DNA methyltransferase targets the four-base recognition sequence 5′-TCGA-3′ and modifies the underlined adenine residue at the N6-position and was combined with Rhodamine sulfonium salt (see example 12 for preparation). The methyltransferase enzyme and cofactors were incubated with pUC19 DNA in “Cutsmart buffer” at 60° C. for 1 hour. To determine if protection occurred the DNA was incubated with the corresponding restriction enzyme (TaqaI) for 1 hour. […]

[2] = tested on: M.MpeI DNA methyltransferase; assay: Restriction protection assay after M.MpeI-directed DNA modification (agarose gel); format: biochemical; details: pUC19 DNA, Cutsmart buffer, 60° C., 1 hour; restriction enzyme HhaI 1 hour; Ethidium bromide
Procedure: Cytosine DNA modification by M.MpeI DNA methyltransferase: […] DNA methyltransferase targets the two-base recognition sequence 5′-CG-3′ and modifies the underlined cytosine residue and was combined with (8-Azido-oct-2-ene)(5′-Deoxyadenosyl)-(L-Cysteine)sulfonium salt (see example 9 for preparation). The methyltransferase enzyme and cofactors were incubated with pUC19 DNA in “Cutsmart buffer” at 60° C. for 1 hour. To determine if protection occurred the DNA was incubated with the corresponding restriction enzyme (HhaI) for 1 hour. Afterwards, the remaining proteins were digested with Proteinase K. The DNA samples are then placed on an agarose gel and visualized with Ethidium bromide (FIG. 3).

plasmid DNA = assay: Super resolution microscopy of fluorescently labeled DNA; details: FIG. 5 panel C; DNA spin coated on poly-L-lysine coated cover slips
Procedure: Adenine-N6 DNA modification by M.TaqI DNA methyltransferase: […] DNA methyltransferase targets the four-base recognition sequence 5′-TCGA-3′ and modifies the underlined adenine residue at the N6-position and was combined with Rhodamine sulfonium salt (see example 12 for preparation). The methyltransferase enzyme and cofactors were incubated with pUC19 DNA in “Cutsmart buffer” at 60° C. for 1 hour. To determine if protection occurred the DNA was incubated with the corresponding restriction enzyme (TaqaI) for 1 hour. Afterwards, the remaining proteins were digested with Proteinase K. DNA samples are then placed on an agarose gel and visualized with Ethidium bromide (FIG. 4).
Fluorescent DNA was purified using DNA Cleaner & Concentrator 5 columns (Zymo Research), and the DNA was spin coated on poly-L-lysine coated cover slips and used directly for microscopy studies. (FIG. 5)

M.TaqI DNA methyltransferase, sequence (P14385 whole entry): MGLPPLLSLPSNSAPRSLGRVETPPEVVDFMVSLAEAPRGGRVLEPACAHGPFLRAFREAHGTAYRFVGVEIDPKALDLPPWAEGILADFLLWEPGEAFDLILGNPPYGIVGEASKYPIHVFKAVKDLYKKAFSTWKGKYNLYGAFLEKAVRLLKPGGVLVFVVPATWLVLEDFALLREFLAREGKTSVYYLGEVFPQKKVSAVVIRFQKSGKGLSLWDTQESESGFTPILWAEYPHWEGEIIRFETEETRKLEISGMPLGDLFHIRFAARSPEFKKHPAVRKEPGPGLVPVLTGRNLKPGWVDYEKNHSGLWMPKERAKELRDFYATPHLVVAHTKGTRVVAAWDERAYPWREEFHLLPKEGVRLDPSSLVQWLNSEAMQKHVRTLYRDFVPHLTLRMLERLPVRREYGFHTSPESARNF

SMILES: [N-]=[N+]=NCCCC#CC[S+](C[C@H](N)C(=O)O)C[C@H]1O[C@@H](n2cnc3c(N)ncnc32)C(O)C1O (stereo partly drawn) [(6-Azido-hex-2-yne)(5′-Deoxyadenosyl)-(L-Cysteine)sulfonium Salt]
- Protection of DNA against cutting by restriction enzyme (band pattern on agarose gel) [1]: 1 strong band, corresponding to uncut DNA

SMILES: [N-]=[N+]=NCCCCCC=CC[S+](C[C@H](N)C(=O)O)C[C@H]1O[C@@H](n2cnc3c(N)ncnc32)[C@H](O)[C@@H]1O (stereo partly drawn) [(8-Azido-oct-2-ene)(5′-Deoxyadenosyl)-(L-Cysteine)sulfonium salt]
- Protection of DNA against cutting by restriction enzyme (band pattern on agarose gel) [2]: 1 strong band, corresponding to uncut DNA

SMILES: CCN(CC)c1ccc2c(-c3ccccc3C(=O)N(C)CCC(=O)NCCCCC/C=C/C[S+](C[C@H](N)C(=O)O)C[C@H]3O[C@@H](n4cnc5c(N)ncnc54)[C@@H](O)C3O)c3ccc(=[N+](CC)CC)cc-3oc2c1 (stereo partly drawn) [Rhodamine sulfonium salt]
- Colocalization of the dye with a DNA intercalating dye (fluorescent DNA labeling) (plasmid DNA): successful fluorescent DNA labeling
